Results published in article PMC4192545, “Suramin Inhibits Hsp104 ATPase and Disaggregase Activity” (PLoS ONE, 2014).

Columns and labels:
Hsp104 = target: T1, Hsp104 (Saccharomyces cerevisiae, UniProt P31539); test: High-throughput Hsp104 ATPase plate assay (malachite green, 384-well); type: biochemical, yeast; conditions: 60 min
T1 construct: made in house; host or cells: E. coli BL21-DE3 RIL
Experimental: ATPase activity was assessed by the release of inorganic phosphate determined using a malachite green phosphate detection kit (Innova Biosciences, Cambridge, United Kingdom). Microtiter plates (384-well) were purchased from PerkinElmer (Waltham, MA). Three libraries were screened: The NIH Clinical Collection (450 small molecules), the Spectrum Collection (2,000 compounds, MicroSource, Gaylordsville, CT) and the HitFinder Collection (14,400 compounds, Maybridge).
We adapted the inorganic phosphate colorimetric assay to fit a 384-well plate format. A Ź-factor between 0.8 and 1 was calculated for the assay. A 2X Hsp104 stock solution was dispensed into each well using a Biotek microflo (Biotek Instruments, Winooski, VT). Compounds were then transferred using a Janus 96/384 Modular Dispensing Tool (PerkinElmer). Finally, a 2X ATP solution was dispensed using the Biotek microflo. Final concentrations of Hsp104 (monomer) and ATP were 0.25 µM and 1 mM respectively. Seeking to avoid the discovery of competitive inhibitors, we designed our high-throughput screen to use a 100-fold excess of ATP with respect to the test compounds (10 µM each). Final buffer conditions were 20 mM HEPES-KOH pH 7.4, 20 mM NaCl and 10 mM MgCl2. The ATPase reaction was allowed to continue for 60 min, at which time the reaction was terminated by addition of the colorimetric reagent. Absorbance was measured at 635 nm on an EnVision Xcite Multilabel plate reader (PerkinElmer). Hits were tested in duplicate. […] Ten of these were subjected to a 6-point titration (40, 13.3, 4.44, 1.45, 0.49 and 0 µM) in the absence or presence of Triton X-100, BSA, or both Triton X-100 and BSA at the specified concentrations. Heat maps were created in Excel for Mac 2011 (Microsoft Corporation) using the Conditional Formatting feature (Color Scales).
We aimed to identify small molecules capable of inhibiting Hsp104. To do so, we employed high-throughput screening using Hsp104 ATPase activity as a proxy for function. To detect changes in Hsp104 ATPase activity, we used a colorimetric assay detecting free inorganic phosphate (Pi) based on the formation of a colored complex between Pi and a dye molecule under acidic conditions, [44]. Pi is produced from the Hsp104-driven hydrolysis of ATP. The colored complex concentration, a surrogate for Pi concentration and ATPase rate, is determined by measuring the absorbance of a sample at 635 nm. We used recombinant Hsp104 purified from E. coli. An Hsp104 mutant with mutations in both NBD1 and NBD2 Walker B sequence motifs (Hsp104^DWB, carrying ATPase ablating mutations E285Q: E687Q) was used as a negative control for ATPase activity. Hsp104^WT activity results in a high A635 (high ATPase), while Hsp104^DWB activity results in a low A635 (low ATPase). We optimized the Pi colorimetric assay to fit a 384-well plate format. We selected the Hsp104 concentration (0.25 µM) on the basis of previous experience in our laboratory. The ATP concentration was selected to be in a 100-fold excess of ATP with respect to the test compounds. […] We screened 16,850 compounds from the NIH Clinical Collection as well as the Spectrum and Maybridge compound libraries. […] For instance, hexachlorophene and tannic acid inhibit Hsp104 ATPase activity by ∼80%, while Merbromin and Sennoside a inhibit by ∼20% ( Table 1 ).

ClpB = target: T2, ClpB (Escherichia coli, UniProt P63284); test: ClpB ATPase assay; type: biochemical, E. coli; conditions: for Normalized ATPase Activity: 10 min, ATP 1 mM, Figure 5A
T2 construct: made in house
Experimental: Wild-type or mutant Hsp104 (0.25 µM monomer) in ATPase buffer (20 mM HEPES-KOH pH 7.4, 20 mM NaCl and 10 mM MgCl2) was incubated for 60 or 10 min at 25°C in the presence of ATP (1 mM) as noted. ATPase activity was assessed by the release of inorganic phosphate determined by using a malachite green phosphate detection kit (Innova).
(A) ClpB (0.25 µM monomer) was incubated for 10 min with ATP (1 mM) and varying concentrations of Suramin. The amount of Pi produced was measured by absorbance at 635 nm. Absorbance values were normalized to the absorbance produced by ClpB in the absence of inhibitor. Values represent mean ±S.D. (n = 6). (B) Urea-denatured firefly luciferase aggregates were incubated for 90 min at 25°C with ClpB (1 µM hexamer) in the presence of 1∶1 mixtures of ATP and ATPγS and varying concentrations of Suramin. Reactivation of luciferase was then determined by luminescence and converted to % WT ClpB activity (activity of 1 µM WT ClpB in the presence of ATP and ATPγS). Values represent mean ±S.D. (n = 6–12). TEXT PRINTED IN THE PICTURE: (A) Suramin: Normalized ATPase Activity: 1.03 ([Suramin] μM: 0); Normalized ATPase Activity: 0.76 ([Suramin] μM: 100); Normalized ATPase Activity: 0.78 ([Suramin] μM: 50); Normalized ATPase Activity: 0.60 ([Suramin] μM: 25); Normalized ATPase Activity: 0.59 ([Suramin] μM: 10); Normalized ATPase Activity: 0.65 ([Suramin] μM: 5); Normalized ATPase Activity: 1.01 ([Suramin] μM: 1) | (B) Suramin: Normalized Luciferase Refolding Activity: 1.00 ([Suramin] μM: 0); Normalized Luciferase Refolding Activity: 0.16 ([Suramin] μM: 100); Normalized Luciferase Refolding Activity: 1.03 ([Suramin] μM: 50); Normalized Luciferase Refolding Activity: 1.39 ([Suramin] μM: 25); Normalized Luciferase Refolding Activity: 2.23 ([Suramin] μM: 10); Normalized Luciferase Refolding Activity: 1.82 ([Suramin] μM: 5); Normalized Luciferase Refolding Activity: 1.02 ([Suramin] μM: 1)

T2 sequence (P63284 whole entry): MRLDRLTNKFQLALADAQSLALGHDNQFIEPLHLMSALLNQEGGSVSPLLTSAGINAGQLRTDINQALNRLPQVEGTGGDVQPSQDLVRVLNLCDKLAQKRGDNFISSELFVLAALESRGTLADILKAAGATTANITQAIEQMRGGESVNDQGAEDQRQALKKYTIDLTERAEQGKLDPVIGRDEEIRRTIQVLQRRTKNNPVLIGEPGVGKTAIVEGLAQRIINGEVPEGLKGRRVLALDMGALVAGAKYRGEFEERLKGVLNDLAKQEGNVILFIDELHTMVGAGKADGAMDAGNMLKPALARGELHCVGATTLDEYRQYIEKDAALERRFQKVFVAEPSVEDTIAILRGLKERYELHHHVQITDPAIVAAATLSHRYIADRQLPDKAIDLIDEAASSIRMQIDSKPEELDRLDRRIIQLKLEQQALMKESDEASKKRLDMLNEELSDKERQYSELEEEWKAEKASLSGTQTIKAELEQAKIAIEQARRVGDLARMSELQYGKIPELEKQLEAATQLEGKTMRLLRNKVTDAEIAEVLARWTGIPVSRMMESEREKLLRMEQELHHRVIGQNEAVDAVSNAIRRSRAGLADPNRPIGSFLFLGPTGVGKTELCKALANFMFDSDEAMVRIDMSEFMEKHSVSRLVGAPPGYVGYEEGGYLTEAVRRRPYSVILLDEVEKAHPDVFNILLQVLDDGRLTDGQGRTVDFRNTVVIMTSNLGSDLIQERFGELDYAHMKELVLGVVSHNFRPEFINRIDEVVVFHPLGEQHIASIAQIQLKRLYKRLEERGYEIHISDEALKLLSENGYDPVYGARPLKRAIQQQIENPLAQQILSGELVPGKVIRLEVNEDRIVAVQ
T1 sequence (P31539 whole entry): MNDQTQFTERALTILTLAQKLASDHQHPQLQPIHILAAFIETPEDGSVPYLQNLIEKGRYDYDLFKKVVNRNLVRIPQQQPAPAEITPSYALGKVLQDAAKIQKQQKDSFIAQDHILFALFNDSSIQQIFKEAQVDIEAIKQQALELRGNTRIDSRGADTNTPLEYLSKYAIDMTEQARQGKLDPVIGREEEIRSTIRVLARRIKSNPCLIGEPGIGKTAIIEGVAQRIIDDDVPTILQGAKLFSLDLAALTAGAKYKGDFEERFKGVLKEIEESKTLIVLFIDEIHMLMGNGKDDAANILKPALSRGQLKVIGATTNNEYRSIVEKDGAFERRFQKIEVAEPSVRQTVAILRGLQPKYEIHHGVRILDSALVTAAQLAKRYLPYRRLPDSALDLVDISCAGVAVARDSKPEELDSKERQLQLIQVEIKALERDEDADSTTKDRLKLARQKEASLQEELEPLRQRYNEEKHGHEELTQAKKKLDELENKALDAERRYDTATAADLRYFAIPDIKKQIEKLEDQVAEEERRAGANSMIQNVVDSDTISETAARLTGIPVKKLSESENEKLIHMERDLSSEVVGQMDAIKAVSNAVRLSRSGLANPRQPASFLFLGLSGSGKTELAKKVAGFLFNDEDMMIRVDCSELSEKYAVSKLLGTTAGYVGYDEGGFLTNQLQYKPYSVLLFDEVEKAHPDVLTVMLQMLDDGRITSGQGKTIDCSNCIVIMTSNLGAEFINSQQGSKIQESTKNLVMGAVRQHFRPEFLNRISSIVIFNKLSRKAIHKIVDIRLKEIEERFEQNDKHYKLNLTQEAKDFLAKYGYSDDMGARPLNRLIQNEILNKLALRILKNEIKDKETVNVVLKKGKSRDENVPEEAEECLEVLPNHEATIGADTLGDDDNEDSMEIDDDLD

SMILES: Cc1ccc(C(=O)Nc2ccc(S(=O)(=O)O)c3cc(S(=O)(=O)O)cc(S(=O)(=O)O)c23)cc1NC(=O)c1cccc(NC(=O)Nc2cccc(C(=O)Nc3cc(C(=O)Nc4ccc(S(=O)(=O)O)c5cc(S(=O)(=O)O)cc(S(=O)(=O)O)c45)ccc3C)c2)c1 [Suramin]
- inhibition at 10 µM (Hsp104; 10 µM compound, Hsp104 0.25 µM monomer, ATP 1 mM, mean ±S.D. (n = 2), read-out: % Inhibition of Hsp104 ATP hydrolysis): 50.8 ± 2.83%
- Inhibition of Hsp104 ATPase activity in the presence of both Triton X-100 and BSA (Hsp104; titration 40-0.49 µM, Triton X-100 and BSA, heat map Figure 1A): most significantly inhibit Hsp104 ATPase activity
- Normalized ATPase Activity (ClpB; ClpB 0.25 µM monomer, Suramin 100 µM): 0.76
- Normalized ATPase Activity (ClpB; ClpB, Suramin 1 µM): 1.01
- Normalized ATPase Activity (ClpB; ClpB, Suramin 5 µM): 0.65
- Normalized ATPase Activity (ClpB; ClpB, Suramin 10 µM): 0.59
- Normalized ATPase Activity (ClpB; ClpB, Suramin 25 µM): 0.60
- Normalized ATPase Activity (ClpB; ClpB, Suramin 50 µM): 0.78
- inhibition at 100 µM (ClpB; Suramin 100 µM): 24%
